# Source: ChEMBL document CHEMBL3351793, “Orally bioavailable factor Xa inhibitors containing alpha-substituted gem-dimethyl P4 moieties” (Bioorg Med Chem Lett, 2014)
# Legend:
# Coagulation factor X = Coagulation factor X (Homo sapiens, UniProt P00742); experiment: Inhibition of purified human factor Xa
# [1] = Apparent permeability from apical to basolateral side of the human Caco2 cells; format: ADME, cell-based; settings: caco-2
# [2] = Clearance in dog at 0.5 mg/kg, iv and 0.2 mg/kg, po administered as cassette dosing; format: ADME, organism-based, Canis lupus familiaris; settings: in vivo
# [3] = Volume of distribution at steady state in dog at 0.5 mg/kg, iv and 0.2 mg/kg, po administered as cassette dosing; format: ADME, organism-based, Canis lupus familiaris; settings: in vivo, read-out: Vdss
# [4] = Half life in dog at 0.2 mg/kg, po administered as cassette dosing; format: ADME, organism-based, Canis lupus familiaris; set-up: dose 0.2 mg/kg, route oral; settings: in vivo
# [5] = Oral bioavailability in dog at 0.2 mg/kg administered as cassette dosing; format: ADME, organism-based, Canis lupus familiaris; settings: in vivo
# Plasma = experiment: Anticoagulant activity in human plasma assessed as concentration required to double prothrombin time; format: functional
# Trypsin = Trypsin (Homo sapiens, UniProt P07477+P07478+P35030); experiment: Inhibition of human trypsin; format: protein assay
# Prothrombin = Prothrombin (Homo sapiens, UniProt P00734); experiment: Inhibition of human thrombin
# Plasma kallikrein = Plasma kallikrein (Homo sapiens, UniProt P03952); experiment: Inhibition of human plasma kallikrein
# [6] = Inhibition of human chymotrypsin
# [7] = target: Vitamin K-dependent protein C (Homo sapiens, UniProt P04070); experiment: Inhibition of human activated protein C
# Coagulation factor IX = Coagulation factor IX (Homo sapiens, UniProt P00740); experiment: Inhibition of human factor 9a
# [8] = Inhibition of human factor 7a
# Coagulation factor XI = Coagulation factor XI (Homo sapiens, UniProt P03951); experiment: Inhibition of human factor 11a
# [9] = target: Urokinase-type plasminogen activator (Homo sapiens, UniProt P00749); experiment: Inhibition of human urokinase
# [10] = target: Tissue-type plasminogen activator (Homo sapiens, UniProt P00750); experiment: Inhibition of human tissue plasminogen activator
# Tissue-type plasminogen activator, sequence (P00750 whole entry): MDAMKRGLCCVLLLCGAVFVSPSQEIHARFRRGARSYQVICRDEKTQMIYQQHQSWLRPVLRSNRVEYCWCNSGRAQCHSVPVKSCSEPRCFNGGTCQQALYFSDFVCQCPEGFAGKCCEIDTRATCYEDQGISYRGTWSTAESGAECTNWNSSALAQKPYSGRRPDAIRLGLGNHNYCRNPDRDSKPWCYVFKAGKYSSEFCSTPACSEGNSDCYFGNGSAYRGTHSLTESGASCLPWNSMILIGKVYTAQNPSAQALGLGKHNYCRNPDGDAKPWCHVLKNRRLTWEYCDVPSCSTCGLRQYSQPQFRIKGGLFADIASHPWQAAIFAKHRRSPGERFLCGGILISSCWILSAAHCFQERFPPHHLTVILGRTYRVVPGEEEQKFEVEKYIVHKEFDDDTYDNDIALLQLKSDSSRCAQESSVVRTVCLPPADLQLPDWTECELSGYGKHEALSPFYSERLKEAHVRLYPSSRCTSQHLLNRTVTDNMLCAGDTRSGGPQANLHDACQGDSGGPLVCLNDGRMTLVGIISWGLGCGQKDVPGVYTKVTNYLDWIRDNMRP
# Coagulation factor X, sequence (P00742 41-179 limits assumed): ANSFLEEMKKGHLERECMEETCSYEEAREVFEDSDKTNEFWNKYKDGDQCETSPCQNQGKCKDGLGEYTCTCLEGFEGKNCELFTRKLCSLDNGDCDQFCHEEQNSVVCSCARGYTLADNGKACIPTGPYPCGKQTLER
# Coagulation factor X, sequence (P00742 235-488 limits assumed): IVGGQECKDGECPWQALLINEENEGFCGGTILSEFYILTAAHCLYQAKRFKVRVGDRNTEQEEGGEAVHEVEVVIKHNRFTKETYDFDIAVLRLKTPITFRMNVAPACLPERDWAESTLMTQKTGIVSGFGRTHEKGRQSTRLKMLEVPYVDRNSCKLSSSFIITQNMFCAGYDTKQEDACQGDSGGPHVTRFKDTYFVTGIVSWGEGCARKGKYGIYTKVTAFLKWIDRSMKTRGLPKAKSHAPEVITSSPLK
# Plasma kallikrein, sequence (P03952 20-390 limits assumed): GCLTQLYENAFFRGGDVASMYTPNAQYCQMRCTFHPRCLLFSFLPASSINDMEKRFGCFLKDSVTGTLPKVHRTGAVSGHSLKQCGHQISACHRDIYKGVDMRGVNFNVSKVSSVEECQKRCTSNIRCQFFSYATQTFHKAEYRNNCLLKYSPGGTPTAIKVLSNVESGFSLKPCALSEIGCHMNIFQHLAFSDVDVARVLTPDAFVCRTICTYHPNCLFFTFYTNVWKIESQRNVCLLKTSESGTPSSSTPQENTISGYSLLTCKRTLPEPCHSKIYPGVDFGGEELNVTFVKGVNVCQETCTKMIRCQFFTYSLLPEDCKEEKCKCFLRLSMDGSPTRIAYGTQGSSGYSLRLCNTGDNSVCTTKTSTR
# Plasma kallikrein, sequence (P03952 391-638 limits assumed): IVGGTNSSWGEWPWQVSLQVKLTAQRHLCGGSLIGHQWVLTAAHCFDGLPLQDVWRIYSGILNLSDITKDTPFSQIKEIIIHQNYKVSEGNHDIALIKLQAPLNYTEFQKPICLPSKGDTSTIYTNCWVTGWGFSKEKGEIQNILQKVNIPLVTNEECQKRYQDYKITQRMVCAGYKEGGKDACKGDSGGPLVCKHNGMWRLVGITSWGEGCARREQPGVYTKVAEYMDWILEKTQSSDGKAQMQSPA
# Vitamin K-dependent protein C, sequence (P04070 43-197 limits assumed): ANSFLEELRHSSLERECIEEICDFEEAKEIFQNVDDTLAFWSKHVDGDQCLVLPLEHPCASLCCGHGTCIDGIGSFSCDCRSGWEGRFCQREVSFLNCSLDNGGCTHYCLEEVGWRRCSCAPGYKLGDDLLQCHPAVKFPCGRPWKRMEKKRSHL
# Vitamin K-dependent protein C, sequence (P04070 212-461 limits assumed): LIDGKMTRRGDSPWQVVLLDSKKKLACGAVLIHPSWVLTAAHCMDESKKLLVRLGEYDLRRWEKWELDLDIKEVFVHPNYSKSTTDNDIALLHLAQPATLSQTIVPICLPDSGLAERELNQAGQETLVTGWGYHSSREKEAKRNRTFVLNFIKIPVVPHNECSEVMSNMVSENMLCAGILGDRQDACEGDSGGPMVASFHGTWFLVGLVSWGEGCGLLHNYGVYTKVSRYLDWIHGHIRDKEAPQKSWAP
# Coagulation factor IX, sequence (P00740 47-191 limits assumed): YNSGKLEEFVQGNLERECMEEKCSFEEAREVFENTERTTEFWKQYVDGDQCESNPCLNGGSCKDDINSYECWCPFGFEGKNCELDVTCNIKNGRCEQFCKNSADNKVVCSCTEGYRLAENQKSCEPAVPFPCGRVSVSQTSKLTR
# Coagulation factor IX, sequence (P00740 227-461 limits assumed): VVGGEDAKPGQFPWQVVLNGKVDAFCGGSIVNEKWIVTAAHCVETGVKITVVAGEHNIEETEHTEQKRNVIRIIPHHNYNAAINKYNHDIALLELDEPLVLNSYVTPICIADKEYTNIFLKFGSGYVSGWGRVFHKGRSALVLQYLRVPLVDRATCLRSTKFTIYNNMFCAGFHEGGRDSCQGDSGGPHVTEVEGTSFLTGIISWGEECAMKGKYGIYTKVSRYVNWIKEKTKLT
# Coagulation factor XI, sequence (P03951 19-387 limits assumed): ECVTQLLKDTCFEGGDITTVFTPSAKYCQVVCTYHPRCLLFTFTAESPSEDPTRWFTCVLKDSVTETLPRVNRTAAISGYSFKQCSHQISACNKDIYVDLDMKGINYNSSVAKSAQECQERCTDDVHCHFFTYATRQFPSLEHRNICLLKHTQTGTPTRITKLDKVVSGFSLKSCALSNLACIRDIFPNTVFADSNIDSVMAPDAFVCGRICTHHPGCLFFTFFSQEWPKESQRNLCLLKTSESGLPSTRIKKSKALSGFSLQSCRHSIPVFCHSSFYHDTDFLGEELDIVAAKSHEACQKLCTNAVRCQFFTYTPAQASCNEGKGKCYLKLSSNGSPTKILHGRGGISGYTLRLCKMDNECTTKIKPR
# Coagulation factor XI, sequence (P03951 388-625 limits assumed): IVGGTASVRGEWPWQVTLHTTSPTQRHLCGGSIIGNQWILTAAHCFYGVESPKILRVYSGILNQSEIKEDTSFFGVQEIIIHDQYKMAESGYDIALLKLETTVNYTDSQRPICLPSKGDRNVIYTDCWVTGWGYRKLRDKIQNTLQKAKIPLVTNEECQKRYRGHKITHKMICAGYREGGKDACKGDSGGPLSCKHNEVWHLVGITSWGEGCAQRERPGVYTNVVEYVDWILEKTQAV
SMILES,Ki (Coagulation factor X) [nM],Papp [1] [×10⁻⁶ cm/s],clearance [2] [mL/min/kg],Vd [3] [L/kg],half-life [4] [h],bioavailability [5] [%],Activity (Plasma) [µM],further results
COc1ccc(-n2nc(C(N)=O)c3c2C(=O)N(c2ccc(C(C)(C)CO)cc2)CC3)cc1,0.66,5.8,16.3,3.02,4.95,50,3.8,Ki (Trypsin): > 15000 nM; Ki (Prothrombin): 2580 nM; Ki (Plasma kallikrein): > 11000 nM; Ki [6]: > 40000 nM; Ki [7]: > 37600 nM; Ki (Coagulation factor IX): > 15000 nM; Ki [8]: > 15000 nM; Ki (Coagulation factor XI): > 15000 nM; Ki [9]: > 13000 nM; Ki [10]: > 43000 nM
COc1ccc(-n2nc(C(N)=O)c3c2C(=O)N(c2ccc(C(C)(C)CN4CCCCC4=O)cc2)CC3)cc1,1.5,8.3,,,,,7.4,
COc1ccc(-n2nc(C(N)=O)c3c2C(=O)N(c2ccc(C(C)(C)N(C)C)cc2)CC3)cc1,0.2,1.1,,,,,0.96,
COc1ccc(-n2nc(C(N)=O)c3c2C(=O)N(c2ccc(N4CCCCC4=O)cc2)CC3)cc1 [APIXABAN],,,0.333,0.2,,,,
COc1ccc(-n2nc(S(C)(=O)=O)c3c2C(=O)N(c2ccc(C(C)(C)CN4CCCC4)cc2)CC3)cc1,0.24,4.3,36.7,5.5,1.4,10,0.92,
COc1ccc(-n2nc(S(C)(=O)=O)c3c2C(=O)N(c2ccc(C(C)(C)CN4CCOCC4)cc2)CC3)cc1,0.32,17,21.3,10.1,4.18,13,3.7,
COc1ccc(-n2nc(C(N)=O)c3c2C(=O)N(c2ccc(C(C)(C)C#N)cc2)CC3)cc1,1.22,18,,,,,3.4,
COc1ccc(-n2nc(C(N)=O)c3c2C(=O)N(c2ccc(C(C)(C)CNC4CC4)cc2)CC3)cc1,0.05,2.8,,,,,0.68,
COc1ccc(-n2nc(S(C)(=O)=O)c3c2C(=O)N(c2ccc(C(C)(C)CO)cc2)CC3)cc1,1.01,3.6,,,,,3.9,
COc1ccc(-n2nc(C(N)=O)c3c2C(=O)N(c2ccc(C(C)(C)CN)cc2)CC3)cc1,0.15,0.7,56,11.8,3.33,44,0.69,
COc1ccc(-n2nc(C(N)=O)c3c2C(=O)N(c2ccc(C(C)(C)N4CCCC4)cc2)CC3)cc1,0.07,1.7,127,12,,,0.81,

# Further compounds by falling Ki (Coagulation factor X), results first:
Ki (Coagulation factor X) [nM],Papp [1] [×10⁻⁶ cm/s],clearance [2] [mL/min/kg],Vd [3] [L/kg],half-life [4] [h],bioavailability [5] [%],SMILES,Activity (Plasma) [µM],further results
9.27,,,,,,COc1ccc(-n2nc(C(N)=O)c3c2C(=O)N(c2ccc(C(C)(C)O)cc2)CC3)cc1,,
0.48,1,5.33,0.51,1.7,79,COc1ccc(-n2nc(C(N)=O)c3c2C(=O)N(c2ccc(C(C)(C)S(C)(=O)=O)cc2)CC3)cc1,3.9,
0.11,4.1,64.3,7.3,1.86,34,COc1ccc(-n2nc(S(C)(=O)=O)c3c2C(=O)N(c2ccc(C(C)(C)CN(C)C)cc2)CC3)cc1,0.67,
0.07,5.9,84,6.57,1.04,41,COc1ccc(-n2nc(C(N)=O)c3c2C(=O)N(c2ccc(C(C)(C)CN(C)C)cc2)CC3)cc1,0.45,
0.06,17,29.3,5.01,2.8,10,COc1ccc(-n2nc(C(N)=O)c3c2C(=O)N(c2ccc(C(C)(C)CN4CCOCC4)cc2)CC3)cc1,3.8,
0.05,5.6,,,,,COc1ccc(-n2nc(C(N)=O)c3c2C(=O)N(c2ccc(C(C)(C)CN4CCCC4)cc2)CC3)cc1,0.73,
